The values that follow come from US20260315464A1, “COMPOSITIONS, METHODS, AND SYSTEMS FOR MODULATING SPLICING OF MSH3” (REVIR THERAPEUTICS, INC., priority 2023, published 2026).

This test concerns MSH3. As to the kind of experiment: QPCR assay for levels of MSH3 upon compound treatment in HEK293T or AD293 cells (fold-change of MSH3 transcript, EC50 of MSH3 downregulation; total MSH3 exons 13/14, exons 20/21; Table 8). It counts as cell-based. Conditions: Homo sapiens, fold-change of the MSH3 transcript, normalized to GAPDH; for mrna remaining at 1 µM: 1 μM compound; for mrna remaining at 10 µM: 10 μM compound. The procedure, abridged:
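MSH3 mRNA was quantified by TaqMan qPCR covering exons 13/14, exons 20/21, exon 13/PE14A and exon 20/PE21A, with GAPDH as reference. Cells used were HEK293T or AD293, treated with compound at 1 μM and […].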

Each structure is given as a SMILES string.

`Cc1nn(C)nc1-c1ncc2c(n1)C(=O)N(c1ccc(O[C@H]3C[C@]4(C)CC[C@](C)(C3)N4)nn1)C2` [Compound 592, 2-(2,5-dimethyl-2H-1,2,3-triazol-4-yl)-6-(6-(((1R,3s,5S)-1,5-dimethyl-8-azabicyclo[3.2.1]octan-3-yl)oxy)pyridazin-3-yl)-5,6-dihydro-7H-pyrrolo[3,4-d]pyrimidin-7-one]: the mrna remaining at 1 µM was found to be 90% and the mrna remaining at 10 µM was 54%.
Compound `Cn1cc(-c2cnc3c(c2)C(=O)N(c2ccc(OC4CC(C)(C)NC(C)(C)C4)nn2)C3)c(Cl)n1` [Compound 608, 3-(3-chloro-1-methyl-1H-pyrazol-4-yl)-6-(6-((2,2,6,6-tetramethylpiperidin-4-yl)oxy)pyridazin-3-yl)-6,7-dihydro-5H-pyrrolo[3,4-b]pyridin-5-one] showed a mrna remaining at 1 µM of 86% and a mrna remaining at 10 µM of 20%.
`Cc1nn(C)cc1-c1cc(F)c2c(c1)C(=O)N(c1ccc(O[C@H]3C[C@]4(C)CC[C@](C)(C3)N4)nn1)C2` [Compound 278, 6-(1,3-dimethyl-1H-pyrazol-4-yl)-2-(6-(((1R,3s,5S)-1,5-dimethyl-8-azabicyclo[3.2.1]octan-3-yl)oxy)pyridazin-3-yl)-4-fluoroisoindolin-1-one] had a mrna remaining at 1 µM of 64% and a mrna remaining at 10 µM of 14%.
As for `Cc1nn(C)cc1-c1ccc2c(c1)C(=O)N(c1ccc(N(C)[C@H]3C[C@]4(C)CC[C@](C)(C3)N4)nn1)C2` [Compound 423, 6-(1,3-dimethyl-1H-pyrazol-4-yl)-2-(6-(((1R,3s,5S)-1,5-dimethyl-8-azabicyclo[3.2.1]octan-3-yl)(methyl)amino)pyridazin-3-yl)isoindolin-1-one], the mrna remaining at 1 µM turned out to be 37% and the mrna remaining at 10 µM stood at 10%.
Taken in the same sequence, the figures for `Cn1ncc(-c2cnc3c(c2)C(=O)N(c2ccc(OC4CCC(C)(C)NC(C)(C)C4)nn2)C3)n1` (stereo not drawn) [Compound 485, 3-(2-methyl-2H-1,2,3-triazol-4-yl)-6-(6-((2,2,7,7-tetramethylazepan-4-yl)oxy)pyridazin-3-yl)-6,7-dihydro-5H-pyrrolo[3,4-b]pyridin-5-one] were 88% and 40%.
`Cc1nn(C)cc1-c1cc(F)c2c(c1)C(=O)N(c1ccc(O[C@H]3C[C@]4(C)CC[C@@](C)(N4)[C@H]3F)nn1)C2` [Compound 281, 6-(1,3-dimethyl-1H-pyrazol-4-yl)-4-fluoro-2-(6-(((1R,2R,3S,5S)-2-fluoro-1,5-dimethyl-8-azabicyclo[3.2.1]octan-3-yl)oxy)pyridazin-3-yl)isoindolin-1-one] displayed a mrna remaining at 1 µM of 85% and a mrna remaining at 10 µM of 41%.
In turn, `Cc1nn(C)cc1-c1cnc2c(c1)C(=O)N(c1ccc(N(C)C3CC(C)(C)NC(C)(C)C3)nn1)C2` [Compound 156, 3-(1,3-dimethyl-1H-pyrazol-4-yl)-6-(6-(methyl(2,2,6,6-tetramethylpiperidin-4-yl)amino)pyridazin-3-yl)-6,7-dihydro-5H-pyrrolo[3,4-b]pyridin-5-one] returned a mrna remaining at 1 µM of 81% and a mrna remaining at 10 µM of 19%.
`Cc1nn(C)cc1-c1cnc2c(c1)C(=O)N(c1ccc(O[C@@H]3C[C@@]4(C)CC[C@](C)(N4)[C@H]3F)nn1)C2` [Compound 215, 3-(1,3-dimethyl-1H-pyrazol-4-yl)-6-(6-(((1S,2R,3R,5R)-2-fluoro-1,5-dimethyl-8-azabicyclo[3.2.1]octan-3-yl)oxy)pyridazin-3-yl)-6,7-dihydro-5H-pyrrolo[3,4-b]pyridin-5-one] had a mrna remaining at 1 µM of 97% and a mrna remaining at 10 µM of 76%.
`Cn1nc(Cl)c(-c2cnc3c(c2)C(=O)N(c2ccc(OC4CC(C)(C)NC5(CCC5)C4)nn2)C3)n1` (stereo not drawn) [Compound 619, 3-(5-chloro-2-methyl-2H-1,2,3-triazol-4-yl)-6-(6-((6,6-dimethyl-5-azaspiro[3.5]nonan-8-yl)oxy)pyridazin-3-yl)-6,7-dihydro-5H-pyrrolo[3,4-b]pyridin-5-one]: the mrna remaining at 1 µM was determined as 80% and the mrna remaining at 10 µM is 10%.
